Earlier results on 2 compounds are cited in patent publication US20250000791A1, “OPHTHALMIC FORMULATION FOR PREVENTING AND/OR TREATING CATARACTS BY EYE DROP ADMINISTRATION” (CHENGDU RUIMU BIOPHARMACEUTICALS CO., LTD., priority 2021, published 2025).

Read-outs that look alike come from different tables or passages of the source.

One data set relates to crystallins. To be noted: lens fragments of cataract patients; lanosterol 0.20 mM, 25-HC 0.25 and 0.50 mM, 37° C., 72 h.
Data set [1] has as its system cataract nucleus obtained after cataract extraction. To be noted: 25 mM lanosterol solution, 6 days.
For data set [2] the following is noted: 0.5% LAN solution with 15% DMSO, 20% ethanol or polysorbate 80, injected into the vitreous body of rats.

In the case of `C[C@H](CCCC(C)(C)O)[C@H]1CC[C@H]2[C@@H]3CC=C4C[C@@H](O)CC[C@]4(C)[C@H]3CC[C@]12C` [25-hydroxycholesterol], in the data set on crystallins, the “binding to crystallins / solving cataract” value was “did not find that lanosterol or 25-hydroxycholesterol can bind to crystallins”.
Turning to `CC(C)=CCC[C@@H](C)[C@H]1CC[C@@]2(C)C3=C(CC[C@]12C)[C@@]1(C)CC[C@H](O)C(C)(C)[C@@H]1CC3` [lanosterol], the solubility in water result is listed as “low solubility in water”. Also, in the data set on animal cataract model (administration by eye drops alone), the effect on cataract entry is given as “cannot treat cataracts”. Further, the effect on cataract result in the data set with animal cataract model (nanoparticles into the vitreous cavity once every 3 days combined with 25 mM eye drops six times a week, 6 weeks) was “the cataract disappeared”. In addition, the cataract clarity result in data set [1] is given as “no significant improvement in cataract clarity”. Also, the “binding to crystallins / solving cataract” value in the data set with crystallins was “did not find that lanosterol or 25-hydroxycholesterol can bind to crystallins”. Further, in data set [2], the “effect on lens opacity” value is recorded as “poses a risk of promoting lens opacity” and the “effect on the vitreous body” value is listed as “causes vitreous turbidness”.
